# Measurements as given in publication PMC10064984, “Anti-cyclooxygenase, anti-glycation, and anti-skin aging effect of Dendrobium officinale flowers’ aqueous extract and its phytochemical validation in aging” (Frontiers in Immunology, 2023).
# Several values for one entry are separate records, joined by “and”; a condition that tells them apart may be missing. Identical values can stand only once.
# What was measured:
# Format in all cases: biochemical
# DPPH· scavenging = test: DPPH· scavenging;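 further: colourimetric DPPH radical scavenging in 96-well plates, absorbance read-out, percent inhibition relative to ethanol control absorbance, IC50 derived graphically from dose-inhibition curves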
# [1] = ABTS·+ decolourisation capacity
# Procedure: Fast colourimetric methods were slightly modified for the in vitro assessment of DPPH· scavenging ([19]), ABTS·+ decolourisation capacity ([20]), and total antioxidant capacity of FRAP ([21]). The stock solutions of derivatisation reagents were diluted as follows before measurement: DPPH was diluted with absolute ethanol until the absorbance was 0.8 ± 0.05 at λ = 517 nm. ABTS working solution was prepared with phosphate buffer (0.2 M, pH 7.4) to display absorbance of 0.8 ± 0.05 at λ = 729 nm, based on a previous study ([22]). The FRAP solution was prepared according to the instructions of the FRAP kit. Absorbances were measured using an automatic microplate reader (Molecular Group Ltd., USA), and all analyses were performed using 96-well plates. All measurements were performed in triplicate, and Trolox was used as a positive control.
# For ABTS·+ decolourisation capacity, 100 μl of ABTS working solution was mixed with 200 μl of sample solution, and the absorbance was recorded after 10 min at 729 nm. Phosphate buffer (0.2 M, pH 7.4) was used as a negative control.
# DPPH· and ABTS·+ radical scavenging activities of the tested sample were both calculated using the following formula:
# % inhibition = (A control − A sample)/A control × 100
# Where A control and A sample represent the absorbance of the control and test samples, respectively. The IC50 was calculated graphically from the dose-inhibition curves.
# [2] = FRAP total antioxidant capacity; conditions: for 标准曲线对应浓度 mM FeSO4 (FRAP, FeSO4 equivalent from standard curve): individual replicates; for 标准曲线对应浓度 mM FeSO4, mean: mean of 3;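 on all read-outs here: colourimetric FRAP kit assay read as absorbance in 96-well plates, values as mM FeSO4 via standard curve, EC1 being sample concentration matching 1.0 mmol/L FeSO4, Trolox positive control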
# [3] = upper part of sheet (extract series), positive control also given in μM
structure (smiles),measurement,setting,value
"Cc1c(C)c2c(c(C)c1O)CCC(C)(C(=O)O)O2 (stereo not shown) [Trolox, 6-hydroxyl-2,5,7,8-tetra-methylchroman-2-carboxylic acid, reference compound]","DPPH scavenging (sheet ""DPPH""), single replicate",DPPH· scavenging; 15.625 ug/ml,32.84% and 29.98% and 33.39%
same,"DPPH scavenging (sheet ""DPPH""), single replicate",DPPH· scavenging; 31.25 ug/ml,58.95% and 55.65% and 57.84%
same,"DPPH scavenging (sheet ""DPPH""), single replicate",DPPH· scavenging; 62.5 ug/ml,84.01% and 87.99% and 89.81%
same,"DPPH scavenging (sheet ""DPPH""), single replicate",DPPH· scavenging; 125 ug/ml,89.42% and 88.80% and 89.64%
same,"DPPH scavenging (sheet ""DPPH""), single replicate",DPPH· scavenging; 250 ug/ml,88.55% and 89.46% and 90.81%
same,"DPPH scavenging (sheet ""DPPH""), single replicate",DPPH· scavenging; 500 ug/ml,93.00% and 92.15% and 93.91%
same,"DPPH scavenging (sheet ""DPPH""), single replicate",DPPH· scavenging; 1000 ug/ml,95.26% and 95.19% and 95.32%
same,IC50,"DPPH· scavenging; mean ± SD, n = 3",159 ± 4.47 µM
same,IC50,DPPH· scavenging; [3],98.8 µM
same,ABTS scavenging rate,"[1]; 7.8125 ug/ml, single replicate wells",8.24% and 9.20% and 7.27%
same,ABTS scavenging rate,"[1]; 15.625 ug/ml, single replicate wells",16.72% and 19.40% and 19.88%
same,ABTS scavenging rate,"[1]; 31.25 ug/ml, single replicate wells",61.34% and 52.07% and 52.74%
same,ABTS scavenging rate,"[1]; 62.5 ug/ml, single replicate wells",94.28% and 95.58% and 92.94%
same,ABTS scavenging rate,"[1]; 125 ug/ml, single replicate wells",96.25% (2×) and 96.22%
same,ABTS scavenging rate,"[1]; 250 ug/ml, single replicate wells",96.32% and 96.28% and 96.27%
same,ABTS scavenging rate,"[1]; 0.5mM series, concentration 7.8125 (unit not given), replicate wells",5.05% and 4.88% and 5.29%
same,ABTS scavenging rate,"[1]; 0.5mM series, concentration 15.625 (unit not given), replicate wells",12.72% and 13.81% and 12.64%
same,ABTS scavenging rate,"[1]; 0.5mM series, concentration 31.25 (unit not given), replicate wells",31.58% and 33.31% and 33.45%
same,ABTS scavenging rate,"[1]; 0.5mM series, concentration 62.5 (unit not given), replicate wells",67.91% and 69.65% and 70.29%
same,ABTS scavenging rate,"[1]; 0.5mM series, concentration 125 (unit not given), replicate wells",99.61% and 99.52% and 99.85%
same,ABTS scavenging rate,"[1]; 0.5mM series, concentration 250 (unit not given), replicate wells",99.86% and 99.73% and 99.90%
same,ABTS scavenging rate,"[1]; 0.5mM series, concentration 500 (unit not given), replicate wells",99.85% and 99.75% and 99.73%
same,ABTS scavenging rate,"[1]; 500 ug/ml, single replicate wells",96.17% and 96.23% and 96.35%
same,IC50,"[1]; mean ± SD, n = 3",145.7 ± 1.22 µM
same,IC50,[1]; [3],111 µM
same,"标准曲线对应浓度 mM FeSO4 (FRAP, FeSO4 equivalent from standard curve)",[2]; 0.15 mM (37.5 μg/ml),0.9597 mM FeSO4 and 0.8823 mM FeSO4 and 0.8550 mM FeSO4
same,"标准曲线对应浓度 mM FeSO4, mean",[2]; 0.15 mM (37.5 μg/ml),0.8990 mM FeSO4
same,"标准曲线对应浓度 mM FeSO4 (FRAP, FeSO4 equivalent from standard curve)",[2]; 0.3 mM (75 μg/ml),1.6552 mM FeSO4 and 1.6329 mM FeSO4 and 1.5219 mM FeSO4
same,"标准曲线对应浓度 mM FeSO4, mean",[2]; 0.3 mM (75 μg/ml),1.6033 mM FeSO4
same,"标准曲线对应浓度 mM FeSO4 (FRAP, FeSO4 equivalent from standard curve)",[2]; 0.6 mM (150 μg/ml),3.1630 mM FeSO4 and 2.8987 mM FeSO4 and 2.7627 mM FeSO4
same,"标准曲线对应浓度 mM FeSO4, mean",[2]; 0.6 mM (150 μg/ml),2.9415 mM FeSO4
same,"标准曲线对应浓度 mM FeSO4 (FRAP, FeSO4 equivalent from standard curve)",[2]; 0.9 mM (225 μg/ml),4.4046 mM FeSO4 and 4.2357 mM FeSO4 and 4.0364 mM FeSO4
same,"标准曲线对应浓度 mM FeSO4, mean",[2]; 0.9 mM (225 μg/ml),4.2256 mM FeSO4
same,"标准曲线对应浓度 mM FeSO4 (FRAP, FeSO4 equivalent from standard curve)",[2]; 1.2 mM (300 μg/ml),5.8342 mM FeSO4 and 5.5270 mM FeSO4 and 5.3675 mM FeSO4
same,"标准曲线对应浓度 mM FeSO4, mean",[2]; 1.2 mM (300 μg/ml),5.5762 mM FeSO4
same,"标准曲线对应浓度 mM FeSO4 (FRAP, FeSO4 equivalent from standard curve)",[2]; 1.5 mM (375 μg/ml),6.9332 mM FeSO4 and 6.7909 mM FeSO4 and 6.4969 mM FeSO4
same,"标准曲线对应浓度 mM FeSO4, mean",[2]; 1.5 mM (375 μg/ml),6.7403 mM FeSO4
same,FRAP EC1,[2]; lower part of sheet (compound series),559.8 ± 19.4 µM
same,FRAP EC1,"[2]; mean ± SD, n = 3",559.8 ± 19.4 µM
same,FRAP EC1,[2]; upper part of sheet (extract series),55.35 ± 5.22 µg/mL
